Consider 15 compounds from ChEMBL document CHEMBL5223104, “Discovery of triazenyl triazoles as Nav1.1 channel blockers for treatment of epilepsy” (Bioorg Med Chem Lett, 2022).

The structures appear in SMILES notation. The source made the active and inactive calls. The rule behind the calls is not given here.

Series [1] addresses Sodium channel protein type 1 subunit alpha (Homo sapiens) (UniProt P35498). Description: Modulator activity at human Nav1.1 expressed in human Flp-In-T-REx-293 cells assessed as change in half activation potential at 100 uM measured at holding potential of -120 mV by whole cell patch clamp electrophysiology assay. The format is cell-based.
Series [2] shares this target. Nature of the series: Modulator activity at human Nav1.1 expressed in human Flp-In-T-REx-293 cells assessed as half inactivation potential at 100 uM by whole cell patch clamp electrophysiology assay. The format is cell-based. (Patch clamp records ionic current or voltage across a cell membrane.)
Series [3] has the same target. Nature of the series: Modulator activity at human Nav1.1 expressed in human Flp-In-T-REx-293 cells assessed as half activation potential at 100 uM measured at holding potential of -120 mV by whole cell patch clamp electrophysiology assay. The format is cell-based.
Series [4] has the same target. Description: Modulator activity at human Nav1.1 expressed in human Flp-In-T-REx-293 cells assessed as change in half inactivation potential at 100 uM by whole cell patch clamp electrophysiology assay. The format is cell-based.
The test system of series [5] is Mus musculus. Nature of the series: Anti-seizure activity against PTZ-induced ICR mouse seizure model assessed as decrease in seizure severity stage at 50 mg/kg, IG incubated for 1 hrs followed by PTZ stimulation and measured <30 mins. The series is classed as functional, organism-based. Conditions: time < 1.5 hrs.
Series [6] concerns Mus musculus. Description: Anti-seizure activity against ICR mouse […] assessed as decrease in seizure stage at 50 mg/kg, IG incubated for 1 hrs followed by PTZ stimulation. The format is functional, organism-based.
Series [7] deals with Mus musculus. Description: Anti-seizure activity against PTZ-induced ICR mouse seizure model assessed as increase in average latency to stage 2 at 50 mg/kg, IG incubated for 1 hrs followed by PTZ stimulation and measured <30 mins. The note with it: time < 1.5 hrs. The format is functional, organism-based.
Series [8] concerns Mus musculus. Description: Anti-seizure activity against PTZ-induced ICR mouse seizure model assessed as increase in average latency to stage 6 at 50 mg/kg, IG incubated for 1 hrs followed by PTZ stimulation and measured <30 mins. The series is classed as functional, organism-based. Conditions: time < 1.5 hrs.
Series [9] concerns Mus musculus. Description: Anti-seizure activity against PTZ-induced ICR mouse seizure model assessed as increase in survival rate at 50 mg/kg, IG incubated for 1 hrs followed by PTZ stimulation and measured <30 mins. The series is classed as functional, organism-based. Conditions: time < 1.5 hrs.
Series [10] in a line: Apparent clearance during terminal phase in Sprague-Dawley rat at 10 mg/kg, iv. The format is ADME, organism-based. The note with it: in vivo.
The nature of series [11]: AUClast in Sprague-Dawley rat plasma at 10 mg/kg, iv. Details: dose 10 mg/kg, route iv. The series is classed as ADME, organism-based. Conditions: in vivo.
Series [12] in a line: Apparent volume of distribution during terminal phase in Sprague-Dawley rat at 50 mg/kg, po. The note with it: in vivo, read-out: Vz/F. The format is ADME, organism-based.
The nature of series [13]: Apparent volume of distribution during terminal phase in Sprague-Dawley rat at 10 mg/kg, iv. The note with it: in vivo. The format is ADME, organism-based.
Series [14] can be described thus: Half life in Sprague-Dawley rat at 50 mg/kg, po. The format is ADME, organism-based. The note with it: in vivo.
The nature of series [15]: Cmax in Sprague-Dawley rat at 50 mg/kg, po. The series is classed as ADME, organism-based. Further details: dose 50 mg/kg, route po. Conditions: in vivo.
The nature of series [16]: Apparent clearance during terminal phase in Sprague-Dawley rat at 50 mg/kg, po. The format is ADME, organism-based. The note with it: in vivo.
The subject of series [17] is Mus musculus. Nature of the series: Anti-seizure activity against ICR mouse […] assessed as increase in survival rate at 50 mg/kg, IG incubated for 1 hrs followed by PTZ stimulation. The series is classed as functional, organism-based.
Series [18] can be described thus: Cmax in Sprague-Dawley rat at 10 mg/kg, iv. The note with it: in vivo. The format is ADME, organism-based. Details: dose 10 mg/kg, route iv.
The nature of series [19]: Oral bioavailability in Sprague-Dawley rat at 50 mg/kg. Conditions: in vivo. The format is ADME, organism-based.
Series [20] has as its system Mus musculus. Nature of the series: Anti-seizure activity against ICR mouse […] assessed as decrease in tonic clonic seizure duration at 50 mg/kg, IG incubated for 1 hrs followed by PTZ stimulation. The format is functional, organism-based. (In general: In the maximal electroshock model the usual endpoint is tonic extension of the hind limbs.)

Series [21] can be described thus: Tmax in Sprague-Dawley rat at 50 mg/kg, po. The format is ADME, organism-based. Conditions: in vivo.
Series [22] in a line: Tmax in Sprague-Dawley rat at 10 mg/kg, iv. The series is classed as ADME, organism-based. Conditions: in vivo.
Series [23] in a line: AUClast in Sprague-Dawley rat plasma at 50 mg/kg, po. The format is ADME, organism-based. Further details: dose 50 mg/kg, route po. Conditions: in vivo.
Series [24] is described as follows: Half life in Sprague-Dawley rat at 10 mg/kg, iv. The series is classed as ADME, organism-based. Conditions: in vivo.
Series [25] concerns Mus musculus. Description: Anti-seizure activity against ICR mouse […] assessed as increase in latency duration in stage 3 at 50 mg/kg, IG incubated for 1 hrs followed by PTZ stimulation. The series is classed as functional, organism-based.

On to `Cc1ccc(Cn2nnc(C(N)=O)c2/N=N/N(C)C)cc1`, for which the delta(V1/2) in series [1] was -1.05 mV; in series [4] it was -3.93 mV. In addition, the V1/2 in series [2] was -66.2 mV; in series [3], -45.4 mV.

Consider `CN(C)/N=N/c1c(C(N)=O)nnn1CCc1c(F)cccc1F`, for which the delta(V1/2) in series [1] is -2.65 mV; in series [4] it was -0.74 mV. Moreover, the V1/2 in [2] is -61.5 mV; in series [3], -31.9 mV.

As for `NC(=O)c1cn(Cc2c(F)cccc2F)nn1`, the figures for the delta(V1/2) in [1] and in series [4] were -7.39 mV and -7.01 mV, respectively. The V1/2 in [2] was -66.7 mV; in [3], -41.3 mV.

Regarding `CN(C)/N=N/c1c(C(N)=O)nnn1Cc1ccccc1Cl`, the values for the delta(V1/2) in series [1] and in [4] were -1.7 mV and -3.13 mV, respectively. For the same compound, the V1/2 in series [2] was -62.9 mV; in series [3] it was -42.7 mV.

As for `CN(C)/N=N/c1c(C(=O)NCc2ccccc2)nnn1Cc1c(F)cccc1F`, the result in series [5], in [7], in [8] and in series [9] was Active. In series [6], the outcome was inactive. The delta(V1/2) in series [1] is 1.95 mV; in [4] it was -11.3 mV. For the same compound, the V1/2 is -78.8 mV in [2] and -36.2 mV in [3].

Consider `CN(C)/N=N/c1c(C(=O)NC2CC2)nnn1Cc1c(F)cccc1F`, for which the delta(V1/2) in series [1] was -2.85 mV; in series [4] it was -3.87 mV. Besides, the V1/2 in [2] is -64.2 mV; in series [3], -32.4 mV.

In the case of `CN(C)/N=N/c1c(C(N)=O)nnn1Cc1ccc(F)cc1`, the delta(V1/2) is -0.99 mV in series [1] and -4 mV in [4]. In addition, the V1/2 was -62 mV in series [2] and -39 mV in [3].

In the case of `CN(C)/N=N/c1c(C(=O)Nc2ccccc2)nnn1Cc1c(F)cccc1F`, the delta(V1/2) in series [1] is -1.64 mV; in series [4], -5.55 mV. Besides, the V1/2 is -73 mV in series [2] and -36.5 mV in series [3].

As for `CN(C)/N=N/c1c(C(N)=O)nnn1Cc1ccccc1F`, the values for the delta(V1/2) in [1] and in series [4] were -3.11 mV and -4.73 mV, respectively. Besides, the values for the V1/2 in series [2] and in series [3] were -66.6 mV and -30.9 mV, respectively.

The Cmax is the maximum level reached in the sampled fluid or tissue. Usually bioavailability stands for dose-corrected exposure relative to a reference, in per cent. A lower bioavailability goes with poor availability. What is called Tmax is the time from dosing to the highest level. With `CN(C)/N=N/c1c(C(N)=O)nnn1Cc1c(F)cccc1F`, the CLz/F came out at 54.2 mL/min/kg in series [10] and 169 mL/min/kg in series [16]. Also, the result in series [5], in [6], in [7], in [17], in series [8] and in [20] was Active. Also, the result in [25] and in series [9] was Active. Also, the AUClast in [11] was determined as 3190 ng·h/mL; in series [23] it was 5460 ng·h/mL. For the same compound, the Vd/F in [12] was 13.6 L/kg. Moreover, in series [13], the Vz/F turned out to be 0.93 L/kg. In addition, the t1/2 was determined as 63 min in [14] and 11.4 min in series [24]. Also, the Cmax was found to be 4496.74 ng/mL in series [15] and 5203.99 ng/mL in [18]. Further, the delta(V1/2) in [1] is -1.81 mV; in [4], -10.1 mV. For the same compound, the V1/2 in [2] was -69.8 mV; in series [3], -46.1 mV. In addition, the bioavailability in [19] was found to be 34.3%. Further, the Tmax in [21] and in series [22] was 10.2 min each time.

`CN(C)/N=N/c1c(C(N)=O)nnn1-c1c(F)cccc1F`: the delta(V1/2) in [1] was -1.09 mV; in series [4], -4.24 mV. Besides, the V1/2 is -64.3 mV in [2] and -35.6 mV in series [3].

Consider `COC(=O)CCCNC(=O)c1nnn(Cc2c(F)cccc2F)c1/N=N/N(C)C`, for which the delta(V1/2) was -1.56 mV in series [1] and -4.72 mV in series [4]. The V1/2 in series [2] is -71.3 mV; in series [3], -35.7 mV.

Regarding `CN(C)/N=N/c1c(C(N)=O)nnn1Cc1ccc(F)cc1F`, the delta(V1/2) in series [1] was -4.15 mV; in series [4], -4.36 mV. In addition, the values for the V1/2 in [2] and in [3] were -63.1 mV and -36.5 mV, respectively.

On to `CN(C)/N=N/c1c(C(N)=O)nnn1Cc1ccccc1`, for which the delta(V1/2) in [1] was -1.5 mV; in [4], -3.79 mV. In addition, the V1/2 is -64.2 mV in series [2] and -43.2 mV in [3].

For `CNC(=O)c1nnn(Cc2c(F)cccc2F)c1/N=N/N(C)C`, the delta(V1/2) in [1] is -4.56 mV; in series [4], -6.54 mV. Further, the V1/2 in series [2] is -69.6 mV; in series [3], -39.5 mV.
